Assay results as given in ChEMBL document CHEMBL5053544, “Microbial transformation of pentacyclic triterpenes for anti-inflammatory agents on the HMGB1 stimulated RAW 264.7 cells by Streptomyces olivaceus CICC 23628” (Bioorg Med Chem, 2021).

Test system: RAW264.7
Experiment: Antiinflammatory activity against mouse RAW264.7 cells assessed as inhibition of HMGB1-induced NO production pretreated with compounds for 15 mins followed by HMGB1 stimulation measured after 24 hrs by Griess reagent based assay
Type: functional, cell-based

SMILES | IC50 [µM]
C[C@]1(CO)C[C@H]2C3=CC[C@@H]4[C@@](C)(CCC(=O)O)[C@H]([C@](C)(O)CO)CC[C@@]4(C)[C@]3(C)CC[C@@]2(C)[C@H](O)[C@@H]1O | 36
COC(=O)CC[C@@]1(C)[C@H]([C@](C)(O)CO)CC[C@]2(C)[C@@H]1CC=C1[C@@H]3C[C@@](C)(CO)C[C@@H](O)[C@]3(C)CC[C@]12C | > 100
C[C@@]1(CO)C[C@H]2C3=CC[C@@H]4[C@@](C)(CCC(=O)O)[C@H]([C@](C)(O)CO)CC[C@@]4(C)[C@]3(C)CC[C@@]2(C)[C@H](O)[C@@H]1O | > 100
C=C(C)[C@@H]1CC[C@]2(C(=O)O)CC[C@]3(C)[C@H](CC[C@@H]4[C@@]5(C)CC[C@H](O)C(C)(C)[C@@H]5CC[C@]43C)[C@@H]12 [BETULINIC ACID] | > 100
CC1(C)C[C@H]2C3=CC[C@@H]4[C@@](C)(CCC(=O)O)[C@H]([C@](C)(O)CO)CC[C@@]4(C)[C@]3(C)CC[C@@]2(C)[C@H](O)[C@@H]1O | > 100
CC1(C)C[C@@H](O)[C@]2(C)CC[C@]3(C)C(=CC[C@@H]4[C@@]5(C)CC[C@H](O)[C@](C)(CO)[C@@H]5CC[C@]43C)[C@@H]2C1 [SOYASAPOGENOL B] | > 100
CC1(C)C[C@@H](O)[C@]2(C)CC[C@]3(C)C(=CC[C@@H]4[C@@](C)(CCC(=O)O)[C@H]([C@](C)(O)CO)CC[C@]43C)[C@@H]2C1 | > 100
C[C@@]1(CO)C[C@@H](O)[C@]2(C)CC[C@]3(C)C(=CC[C@@H]4[C@@](C)(CCC(=O)O)[C@H]([C@](C)(O)CO)CC[C@]43C)[C@@H]2C1 | > 100
C=C(CO)[C@@H]1CC[C@]2(C(=O)O)CC[C@]3(C)[C@H](CC[C@@H]4[C@@](C)(CCC(=O)OC)[C@H](C(C)(C)O)CC[C@]43C)[C@@H]12 | > 100
C=C(CO)[C@@H]1CC[C@]2(C(=O)O)CC[C@]3(C)[C@H](CC[C@@H]4[C@@](C)(CCC(=O)O)[C@H](C(C)(C)O)CC[C@]43C)[C@@H]12 | > 100
C=C(C)[C@@H]1CC[C@]2(C(=O)O)CC[C@]3(C)[C@H](CC[C@@H]4[C@@](C)(CCC(=O)O)[C@H](C(C)(C)O)CC[C@]43C)[C@@H]12 | > 100
CC1(C)C[C@H]2C3=CC[C@@H]4[C@@](C)(CCC(=O)O)[C@H]([C@](C)(O)CO)CC[C@@]4(C)[C@]3(C)CC[C@@]2(C)[C@H](O)[C@H]1O | 15.9
CC1(C)C[C@H]2C3=CC[C@@H]4[C@@](C)(CCC(=O)O)[C@H]([C@](C)(O)CO)CC[C@@]4(C)[C@]3(C)C[C@@H](O)[C@@]2(CO)[C@@H](O)[C@@H]1O | > 100
CC1(C)C[C@H]2C3=CC[C@@H]4[C@@]5(C)CC[C@H](O)[C@](C)(CO)[C@@H]5CC[C@@]4(C)[C@]3(C)CC[C@@]2(C)[C@H](O)[C@@H]1O [SOYASAPOGENOL A] | > 100
CC(O)(CO)[C@@H]1CC[C@]2(C)[C@H](CC=C3[C@@H]4C[C@@](C)(CO)C[C@@H](O)[C@]4(C)CC[C@]32C)[C@@]1(C)CCC(=O)O (some centres not stated) | > 100
C=C(C)[C@@H]1CC[C@]2(C(=O)O)CC[C@]3(C)[C@H](CC[C@@H]4[C@@](C)(CCC(=O)OC)[C@H](C(C)(C)O)CC[C@]43C)[C@@H]12 | > 100
CC1(C)[C@@H](OC(=O)CCC(=O)O)CC[C@]2(C)[C@H]3C(=O)C=C4[C@@H]5C[C@@](C)(C(=O)O)CC[C@]5(C)CC[C@@]4(C)[C@]3(C)CC[C@@H]12 [CARBENOXOLONE] | 11.4
